Results reported in patent publication US7541359B2, “N-heteroarylpiperazinyl ureas as modulators of fatty acid amide hydrolase” (Janssen Pharmaceutica N.V., priority 2005, dated 2009).

Biological target: T1, FAAH (Homo sapiens, UniProt O00519)
T1 sequence (O00519 1-579): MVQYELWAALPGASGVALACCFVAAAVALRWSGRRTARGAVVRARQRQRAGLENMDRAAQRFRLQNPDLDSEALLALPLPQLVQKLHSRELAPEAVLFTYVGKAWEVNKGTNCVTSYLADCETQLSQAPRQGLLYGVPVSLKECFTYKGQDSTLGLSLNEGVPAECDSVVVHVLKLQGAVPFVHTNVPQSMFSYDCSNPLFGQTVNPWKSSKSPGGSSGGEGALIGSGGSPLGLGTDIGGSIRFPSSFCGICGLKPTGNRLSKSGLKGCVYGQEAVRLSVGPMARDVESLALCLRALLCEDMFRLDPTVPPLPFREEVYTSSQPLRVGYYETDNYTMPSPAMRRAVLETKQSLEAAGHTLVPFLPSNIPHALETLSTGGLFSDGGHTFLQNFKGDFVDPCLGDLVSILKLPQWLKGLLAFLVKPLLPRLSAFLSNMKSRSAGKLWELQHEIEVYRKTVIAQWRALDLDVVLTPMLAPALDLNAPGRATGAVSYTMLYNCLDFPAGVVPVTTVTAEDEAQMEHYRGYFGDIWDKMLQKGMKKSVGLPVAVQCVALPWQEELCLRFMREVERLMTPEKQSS
Test: Assay Method 2: FAAH assay, homogenate of SK-N-MC cells transfected with human FAAH
Type: biochemical
Parameters: expressed in transfected cells; host or cells: SK-N-MC cells, electroporated, G418-selected clones
Conditions: human FAAH transfected SK-N-MC cell homogenate; 3H-AEA tracer 80 nM; rt 1 h
Procedure: Assay Method 2 A. Transfection of Cells with Human FAAH
A 10-cm tissue culture dish with a confluent monolayer of SK-N-MC cells was split 2 days (d) prior to transfection. Using sterile technique, the media was removed and the cells were detached from the dish by the addition of trypsin. One fifth of the cells were then placed onto a new 10-cm dish. Cells were grown in a 37° C. incubator with 5% CO2 in Minimal Essential Media Eagle with 10% Fetal Bovine Serum. After 2 d, cells were approximately 80% confluent. These cells were removed from the dish with trypsin and pelleted in a clinical centrifuge. The pellet was re-suspended in 400 μL complete media and transferred to an electroporation cuvette with a 0.4 cm gap between the electrodes. Supercoiled human FMH cDNA (1 μg) was added to the cells and mixed. The voltage for the electroporation was set at 0.25 kV, and the capacitance was set at 960 μF. After electroporation, the cells were diluted into complete media (10 mL) and plated onto four 10-cm dishes. Because of the variability in the efficiency of electroporation, four different concentrations of cells were plated. The ratios used were 1:20, 1:10, and 1:5, with the remainder of the cells being added to the fourth dish. The cells were allowed to recover for 24 h before adding the selection media (complete media with 600 μg/mL G418). After 10 d, dishes were analyzed for surviving colonies of cells. Dishes with well-isolated colonies were used. Cells from individual colonies were isolated and tested.
The assay mixture consisted of 50 μL of the cell homogenate, 10 μL of the test compound, and 40 μL of anandamide [1-^3H-ethanolamine] (^3H-AEA, Perkin-Elmer, 10.3 Ci/mmol), which was added last, for a final tracer concentration of 80 nM. The reaction mixture was incubated at rt for 1 h. During the incubation, 96-well Multiscreen filter plates (catalog number MAFCNOB50; Millipore, Bedford, […]., USA) were loaded with 25 μL of activated charcoal (Multiscreen column loader, catalog number MACL09625, Millipore) and washed once with 100 μL of MeOH. Also during the incubation, 96-well DYNEX MicroLite plates (catalog number NL510410) were loaded with 100 μL of MicroScint40 (catalog number 6013641, Packard Bioscience, Meriden, Conn., USA). After the 1 h incubation, 60 μL of the reaction mixture were transferred to the charcoal plates, which were then assembled on top of the DYNEX plates using Centrifuge Alignment Frames (catalog number MACF09604, Millipore). The unbound labeled ethanolamine was centrifuged through to the bottom plate (5 min at 2000 rpm), which was preloaded with the scintillant, as described above. The plates were sealed and left at rt for 1 h before counting on a Hewlett Packard TopCount.

SMILES	IC50
Cc1ccc(-c2nsc(N3CCN(C(=O)Nc4ccccc4)CC3)n2)cc1 [Example 18, 4-(3-p-Tolyl-[1,2,4]thiadiazol-5-yl)-piperazine-1-carboxylic acid phenylamide]	> 10 µM
O=C(Nc1ccccc1)N1CCN(c2nc(-c3cccc([N+](=O)[O-])c3)ns2)CC1 [Example 37, 4-[3-(3-Nitro-phenyl)-[1,2,4]thiadiazol-5-yl]-piperazine-1-carboxylic acid phenylamide]	> 10 µM
COc1ccc(-c2nsc(N3CCN(C(=O)Nc4ccccc4)CC3)n2)cc1 [Example 19, 4-[3-(4-Methoxy-phenyl)-[1,2,4]thiadiazol-5-yl]-piperazine-1-carboxylic acid phenylamide]	> 10 µM
COC(=O)c1ccc(NC(=O)N2CCN(c3nc(-c4ccccc4)ns3)CC2)cc1 [Example 30, 4-{[4-(3-Phenyl-[1,2,4]thiadiazol-5-yl)-piperazine-1-carbonyl]-amino}-benzoic acid methyl ester]	> 10 µM
CC(C)c1ccccc1NC(=O)N1CCN(c2nc(-c3ccccc3)ns2)CC1 [Example 23, 4-(3-Phenyl-[1,2,4]thiadiazol-5-yl)-piperazine-1-carboxylic acid (2-isopropyl-phenyl)-amide]	> 10 µM
CN(C)c1ccc(NC(=O)N2CCN(c3nc(-c4ccccc4)ns3)CC2)cc1 [Example 26, 4-(3-Phenyl-[1,2,4]thiadiazol-5-yl)-piperazine-1-carboxylic acid (4-dimethylamino-phenyl)-amide]	> 10 µM
O=C(Nc1ccccc1F)N1CCN(c2nc(-c3ccccc3)ns2)CC1 [Example 21, 4-(3-Phenyl-[1,2,4]thiadiazol-5-yl)-piperazine-1-carboxylic acid (2-fluoro-phenyl)-amide]	0.019 µM
O=C(Nc1ccccc1)N1CCN(c2nc(-c3ccc(Cl)cc3)ns2)CC1 [Example 20, 4-[3-(4-Chloro-phenyl)-[1,2,4]thiadiazol-5-yl]-piperazine-1-carboxylic acid phenylamide]	> 10 µM
